# Target: Rho-associated protein kinase 1 (Homo sapiens, UniProt Q13464)
# Assay: In Vitro Assay
# Protocol: Compounds were dissolved in DMSO so that the final concentration of DMSO was <2%, and the reaction was initiated with Rho kinase variants. After incubation, the reaction was terminated by the addition of EDTA and the phosphorylated and non-phosphorylated peptides separated using a LABCHIP 3000 Reader (Caliper Life Sciences). […] Compounds were tested in dose-response format, and the inhibition of kinase activity was calculated at each concentration of compound.
# Sequence of Rho-associated protein kinase 1 (Q13464 whole entry): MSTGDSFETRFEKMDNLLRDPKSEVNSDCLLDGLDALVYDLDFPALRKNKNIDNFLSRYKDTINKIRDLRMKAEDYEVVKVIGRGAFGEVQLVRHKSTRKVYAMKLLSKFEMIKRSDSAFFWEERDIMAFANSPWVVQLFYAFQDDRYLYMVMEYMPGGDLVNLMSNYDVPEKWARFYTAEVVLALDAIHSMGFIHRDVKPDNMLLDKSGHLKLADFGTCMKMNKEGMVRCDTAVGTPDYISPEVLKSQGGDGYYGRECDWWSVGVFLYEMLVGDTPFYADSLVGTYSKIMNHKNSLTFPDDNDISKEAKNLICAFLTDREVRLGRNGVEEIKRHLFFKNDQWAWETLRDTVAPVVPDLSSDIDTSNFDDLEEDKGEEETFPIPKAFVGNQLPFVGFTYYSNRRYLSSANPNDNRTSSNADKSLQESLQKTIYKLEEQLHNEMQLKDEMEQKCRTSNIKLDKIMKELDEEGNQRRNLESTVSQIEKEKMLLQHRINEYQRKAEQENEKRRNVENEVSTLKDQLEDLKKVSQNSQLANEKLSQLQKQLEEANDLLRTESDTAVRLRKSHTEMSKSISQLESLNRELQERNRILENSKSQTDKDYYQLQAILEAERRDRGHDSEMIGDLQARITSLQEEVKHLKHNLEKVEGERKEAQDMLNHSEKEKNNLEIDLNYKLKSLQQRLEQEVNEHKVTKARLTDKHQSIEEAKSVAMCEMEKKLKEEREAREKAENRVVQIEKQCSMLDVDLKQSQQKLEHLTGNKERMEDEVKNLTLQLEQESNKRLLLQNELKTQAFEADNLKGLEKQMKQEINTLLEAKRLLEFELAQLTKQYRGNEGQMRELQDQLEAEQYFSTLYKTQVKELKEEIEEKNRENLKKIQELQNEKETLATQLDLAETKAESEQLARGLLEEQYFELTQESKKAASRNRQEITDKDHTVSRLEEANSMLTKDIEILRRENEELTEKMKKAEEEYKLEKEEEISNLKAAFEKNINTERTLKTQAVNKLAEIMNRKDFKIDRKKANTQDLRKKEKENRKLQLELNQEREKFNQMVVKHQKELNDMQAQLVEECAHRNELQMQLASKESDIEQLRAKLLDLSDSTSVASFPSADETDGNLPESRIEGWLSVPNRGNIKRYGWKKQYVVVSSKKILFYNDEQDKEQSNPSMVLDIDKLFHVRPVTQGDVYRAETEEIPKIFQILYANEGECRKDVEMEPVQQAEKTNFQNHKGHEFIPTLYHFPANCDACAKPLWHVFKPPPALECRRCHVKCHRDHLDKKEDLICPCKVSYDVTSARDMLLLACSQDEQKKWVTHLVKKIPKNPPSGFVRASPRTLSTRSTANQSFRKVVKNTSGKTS
row,SMILES,IC50
1,"O=C(Nc1ccc(-c2n[nH]c(=O)c3ccccc23)cc1)c1cc2ncccn2n1 [US9926282, Example 102]",< 0.1 µM
2,"O=C(Nc1ccc(-c2n[nH]c(=O)c3ccccc23)cc1)c1c[nH]c2ncc(F)cc12 [US9926282, Example 120]",< 0.1 µM
3,"CCc1c(C(=O)Nc2ccc(-c3n[nH]c(=O)c4ccccc34)cc2)nnn1-c1cccc(Cl)c1 [US9926282, Example 225]",< 0.1 µM
4,"O=C(Nc1ccc(-c2n[nH]c(=O)c3ccccc23)c(Cl)c1)c1nn(CC2CNC2)c2ccccc12 [US9926282, Example 327]",< 0.1 µM
5,"O=C(Nc1ccc(-c2n[nH]c(=O)c3ccccc23)cc1)c1nn(CC2CCNCC2)c2ccccc12 [US9926282, Example 342]",< 0.1 µM
6,"O=C(Nc1ccc(-c2n[nH]c(=O)c3ccccc23)cc1)c1cnn(C2CCCCC2)c1 [US9926282, Example 373]",< 0.1 µM
7,"O=C(Nc1ccc(-c2n[nH]c(=O)c3ccccc23)cc1)c1cnn(C2CCCC2)c1 [US9926282, Example 374]",< 0.1 µM
8,"O=C(Nc1ccc(-c2n[nH]c(=O)c3ccccc23)cc1)c1cnn(CC(O)C(F)(F)F)c1 (centres undefined) [US9926282, Example 378]",< 0.1 µM
9,"CCCn1cc(C(=O)Nc2ccc(-c3n[nH]c(=O)c4ccccc34)cc2)cn1 [US9926282, Example 382]",< 0.1 µM
